Assay results from patent US11214803B2, “Modulators of YAP1 expression” (Ionis Pharmaceuticals, Inc., priority 2019, dated 2022).
Strand notation (5' to 3'): a small letter for the sugar, then the base; units joined by * are phosphorothioate-linked, units joined directly phosphodiester-linked; [ ] holds rarer units or linkages, { } end groups; capitals alone tell only the bases. k = constrained ethyl (cEt); [5mC] = 5-methylcytosine; d = 2'-deoxy (DNA)

System: Yap1 mRNA
Assay: Dose-dependent inhibition of human Yap1 in A-431 cells (Example 7, 10,000 cells per well, RTS36584)
Assay type: cell-based
Details: free uptake
Experimental: Modified oligonucleotides described in the studies above were tested at various doses in A-431 cells. Cultured A-431 cells at a density of 10,000 cells per well were treated using free uptake with modified oligonucleotides diluted to concentrations described in the tables below. After approximately 48 hours, Yap1 mRNA levels were measured as previously described using the Human Yap1 primer-probe set RTS36584. Yap1 mRNA levels were normalized to total RNA content, as measured by RIBOGREEN®. Results are presented in the tables below as percent control of the amount of Yap1 mRNA relative to untreated control cells (% UTC). IC50s were calculated using a linear regression on a log/linear plot of the data in excel.

[1] = Table 58, 15.6 nM, A-431 cells 10,000 cells per well, 48 hours
[2] = Table 58, 62.5 nM, A-431 cells 10,000 cells per well, 48 hours
[3] = Table 58, 4000.00 nM, A-431 cells 10,000 cells per well, 48 hours
[4] = Table 58, A-431 cells 10,000 cells per well
[5] = 15.6 nM, A-431 cells, 10,000 cells per well, approximately 48 hours
[6] = 62.5 nM, A-431 cells, 10,000 cells per well, approximately 48 hours
[7] = 4000.00 nM, A-431 cells, 10,000 cells per well, approximately 48 hours
[8] = A-431 cells, approximately 48 hours, linear regression on log/linear plot
[9] = Table 57, 15.6 nM, A-431 cells 10,000 cells per well, 48 hours
[10] = Table 57, 62.5 nM, A-431 cells 10,000 cells per well, 48 hours
[11] = Table 57, 4000.00 nM, A-431 cells 10,000 cells per well, 48 hours
[12] = Table 57, A-431 cells 10,000 cells per well
[13] = Table 59, 15.6 nM, A-431 cells 10,000 cells per well, 48 hours
[14] = Table 59, 62.5 nM, A-431 cells 10,000 cells per well, 48 hours
[15] = Table 59, 4000.00 nM, A-431 cells 10,000 cells per well, 48 hours
[16] = Table 59, A-431 cells 10,000 cells per well

Substance: 958457 (antisense kG*kT*k[5mC]*dG*dA*dA*dG*dA*dT*dG*d[5mC]*dT*dG*kA*kG*k[5mC]) [compound 958457]
- Yap1 mRNA, % UTC [1]: 91 % UTC
- Yap1 mRNA, % UTC [2]: 50 % UTC
- Yap1 mRNA, % UTC [3]: 13 % UTC
- IC50 [4]: 100 nM

Substance: 958535 (kG*kG*kG*dT*d[5mC]*dA*dA*dT*dT*dT*dT*d[5mC]*dA*kG*k[5mC]*kA; antisense) [compound 958535]
- Yap1 mRNA, % UTC [5]: 98 % UTC
- Yap1 mRNA, % UTC [6]: 64 % UTC
- Yap1 mRNA, % UTC [7]: 19 % UTC
- IC50 [8]: 200 nM

Substance: 958547 (k[5mC]*kA*k[5mC]*dA*dT*dA*d[5mC]*dT*d[5mC]*dT*dA*dG*dT*kT*kA*k[5mC]; antisense) [compound 958547]
- Yap1 mRNA, % UTC [1]: 98 % UTC
- Yap1 mRNA, % UTC [2]: 74 % UTC
- Yap1 mRNA, % UTC [3]: 22 % UTC
- IC50 [4]: 200 nM

Substance: 958614 (kG*kT*k[5mC]*dT*dT*dG*dT*dT*d[5mC]*dT*dT*dA*dT*kG*kG*kT; antisense) [compound 958614]
- Yap1 mRNA, % UTC (Table 61, 15.6 nM, A-431 cells 10,000 cells per well, 48 hours): 84 % UTC
- Yap1 mRNA, % UTC (Table 61, 62.5 nM, A-431 cells 10,000 cells per well, 48 hours): 49 % UTC
- Yap1 mRNA, % UTC (Table 61, 4000.00 nM, A-431 cells 10,000 cells per well, 48 hours): 13 % UTC
- IC50 (Table 61, A-431 cells 10,000 cells per well): 100 nM

Substance: 958370 (antisense k[5mC]*kT*kT*dT*dA*dT*d[5mC]*dT*dA*dG*d[5mC]*dT*dT*kG*kG*kT) [compound 958370]
- Yap1 mRNA, % UTC (Table 56, 15.6 nM, A-431 cells 10,000 cells per well, 48 hours): 98 % UTC
- Yap1 mRNA, % UTC (Table 56, 62.5 nM, A-431 cells 10,000 cells per well, 48 hours): 74 % UTC
- Yap1 mRNA, % UTC (Table 56, 4000.00 nM, A-431 cells 10,000 cells per well, 48 hours): 22 % UTC
- IC50 (Table 56, A-431 cells 10,000 cells per well): 200 nM

Substance: 958526 (kA*kG*kT*dA*dA*dG*dA*dA*d[5mC]*dA*dA*dT*d[5mC]*kT*kT*kG; antisense) [compound 958526]
- Yap1 mRNA, % UTC [9]: 118 % UTC
- Yap1 mRNA, % UTC [10]: 83 % UTC
- Yap1 mRNA, % UTC [11]: 17 % UTC
- IC50 [12]: 200 nM

Substance: 958537 (k[5mC]*kA*kG*dG*dG*dT*d[5mC]*dA*dA*dT*dT*dT*dT*k[5mC]*kA*kG; antisense) [compound 958537]
- Yap1 mRNA, % UTC [1]: 100 % UTC
- Yap1 mRNA, % UTC [2]: 56 % UTC
- Yap1 mRNA, % UTC [3]: 11 % UTC
- IC50 [4]: 100 nM

Substance: 958570 (kT*kG*kT*dA*dA*dT*dT*d[5mC]*dA*dT*dA*dT*dA*k[5mC]*k[5mC]*k[5mC]; antisense) [compound 958570]
- Yap1 mRNA, % UTC [5]: 93 % UTC
- Yap1 mRNA, % UTC [6]: 60 % UTC
- Yap1 mRNA, % UTC [7]: 17 % UTC
- IC50 [8]: 100 nM

Substance: 958541 (kG*kT*kA*dT*dT*d[5mC]*dT*dA*dT*d[5mC]*d[5mC]*dA*dG*kG*kG*kT; antisense) [compound 958541]
- Yap1 mRNA, % UTC [9]: 81 % UTC
- Yap1 mRNA, % UTC [10]: 51 % UTC
- Yap1 mRNA, % UTC [11]: 9 % UTC
- IC50 [12]: 100 nM

Substance: 958805 (k[5mC]*kA*kA*dG*dA*dT*dA*dA*dT*d[5mC]*dA*dT*d[5mC]*k[5mC]*kT*k[5mC]; antisense) [compound 958805]
- Yap1 mRNA, % UTC [5]: 90 % UTC
- Yap1 mRNA, % UTC [6]: 89 % UTC
- Yap1 mRNA, % UTC [7]: 28 % UTC
- IC50 [8]: 300 nM

Substance: 958490 (kG*kT*kG*dA*d[5mC]*dA*dT*dG*dA*dA*dG*d[5mC]*dA*kT*k[5mC]*kT; antisense) [compound 958490]
- Yap1 mRNA, % UTC [5]: 81 % UTC
- Yap1 mRNA, % UTC [6]: 54 % UTC
- Yap1 mRNA, % UTC [7]: 13 % UTC
- IC50 [8]: 100 nM

Substance: 958572 (kA*kT*kT*dA*dT*dA*dG*dG*d[5mC]*dA*d[5mC]*dT*d[5mC]*k[5mC]*kT*kT; antisense) [compound 958572]
- Yap1 mRNA, % UTC [13]: 83 % UTC
- Yap1 mRNA, % UTC [14]: 77 % UTC
- Yap1 mRNA, % UTC [15]: 22 % UTC
- IC50 [16]: 200 nM

Substance: 958555 (kG*k[5mC]*kT*dT*dA*dT*dA*dT*dT*dG*dA*dA*dG*kA*kG*kT; antisense) [compound 958555]
- Yap1 mRNA, % UTC [5]: 99 % UTC
- Yap1 mRNA, % UTC [6]: 73 % UTC
- Yap1 mRNA, % UTC [7]: 13 % UTC
- IC50 [8]: 200 nM

Substance: 958727 (kA*kT*k[5mC]*dT*dG*dT*d[5mC]*dA*dG*dT*dT*dA*dT*k[5mC]*k[5mC]*kT; antisense) [compound 958727]
- Yap1 mRNA, % UTC [1]: 90 % UTC
- Yap1 mRNA, % UTC [2]: 42 % UTC
- Yap1 mRNA, % UTC [3]: 8 % UTC
- IC50 [4]: 100 nM

Substance: 958737 (kG*kG*kA*dA*dT*dA*d[5mC]*dA*dA*dG*d[5mC]*d[5mC]*d[5mC]*kG*kA*kG; antisense) [compound 958737]
- Yap1 mRNA, % UTC [13]: 104 % UTC
- Yap1 mRNA, % UTC [14]: 92 % UTC
- Yap1 mRNA, % UTC [15]: 29 % UTC
- IC50 [16]: 400 nM
